According to US12215354B2, “Differentiation of human embryonic stem cells into single hormonal insulin positive cells” (Janssen Biotech, Inc., priority 2011, dated 2025):

Tested on: human embryonic stem cell line H1
Experiment: Real-time PCR gene expression, dose and stage of ascorbic acid (Example 12)
Format: cell-based
Method: Cells of the human embryonic stem cell line H1 at various passages (passage 40 to passage 52) were seeded as single cells at a density of 100,000 cells/cm^2 on MATRIGEL™ (1:30 dilution) coated dishes in mTesr™1 media and 10 μM of Y27632. Forty eight hours post seeding, cultures were differentiated into pancreatic endocrine lineage as follows: • a. Stage 1 (Definitive Endoderm (DE)−3 days): Prior to start of DE, the cultures were washed and incubated with incomplete PBS (no Mg or Ca) for 30 seconds followed by addition of the stage 1 media. Human embryonic stem cells cultured as single cells on MATRIGEL™-coated dishes were treated with MCDB-131 medium supplemented with 0.1% fatty acid-free BSA, 0.0012 g/ml sodium bicarbonate, 1× GLUTAMAX™, 5 mM D-Glucose, and 100 ng/ml GDF8 plus 1 μM MCX compound (GSK3B inhibitor) for one day. Cells were then treated with MCDB-131 medium supplemented with 0.1% fatty acid-free BSA, 0.0012 g/ml sodium bicarbonate, 1× GLUTAMAX™, 5 mM glucose, and 100 ng/ml GDF8 plus 100 nM MCX compound for day two, followed by an additional day in MCDB-131 medium supplemented with 0.1% fatty acid-free BSA, 0.0012 g/ml sodium bicarbonate, 1× GLUTAMAX™, 5 mM Glucose, and 100 ng/ml GDF8. • b. Stage 2 (Primitive gut tube−2 days): Stage 1 cells were treated with MCDB-131 medium supplemented with 0.1% fatty acid-free BSA, 0.0012 g/ml sodium bicarbonate, 1× GLUTAMAX™, 5 mM D-Glucose, with or without the addition of 0.25 mM ascorbic acid and 25 ng/ml FGF7 for two days. • c. Stage 3 (Foregut−2 days): Stage 2 cells were treated with MCDB131 medium supplemented with 1:200 dilution of ITS-X, 2.5 mM Glucose, 1× GLUTAMAX™, 0.0015 g/ml sodium bicarbonate, 2% fatty acid-free BSA, 10 ng/ml Activin A, 25 ng/ml FGF7, 0.25 μM SANT-1, +/−0.25 mM ascorbic acid, 1 μM RA, 200 nM TPB, 100 nM LDN-193189 for day 1, followed by treatment with MCDB131 medium supplemented with 1:200 dilution of ITS-X, 2.5 mM Glucose, 1× GLUTAMAX™, 0.0015 g/ml sodium bicarbonate, 2% fatty acid-free BSA, 10 ng/ml Activin A, 25 ng/ml FGF7, 0.25 μM SANT-1, +/−0.25 mM ascorbic acid, 1 μM RA, 200 nM TPB, 10 nM LDN-193189 for an additional day. • d. Stage 4 (Pancreatic foregut precursor-2 days): Stage 3 cells were treated with MCDB131 medium supplemented with 1:200 dilution of ITS-X, 2.5 mM Glucose, 1× GLUTAMAX™, 0.0015 g/ml sodium bicarbonate, 2% fatty acid-free BSA, 0.25 μM SANT-1, 50 nM RA, 200 nM TPB, 50 nM LDN-193189, with or without the addition of 0.25 mM to 1 mM ascorbic acid for two days. • e. […]

[1] = at stage 5, ascorbic acid added at stages 2-4

Structure (SMILES): O=C1O[C@H]([C@@H](O)CO)C(O)=C1O [ascorbic acid]
- benefit of 0.5-1 mM as compared to 0.25 mM ascorbic acid (at S4): no significant benefit
- expression of insulin and Pax4 [1]: maintaining
- expression of somatostatin, glucagon, and Pax6 [1]: significantly reduced
- expression of glucagon and somatostatin (at stage S3-5, ascorbic acid added at stage 2): effective in lowering
